Data: publication PMC13072876 (International Journal of Molecular Sciences, 2026)
Values after ≈ are worked out from the molar mass of the structure shown.

Assay: Water solubility, experimental
Format: physicochemical
Excerpt: Table 5 Water solubility of tested compounds experimental [mg/mL] and predicted by the SwissADME web tool. | column: Water Solubility / [mg/mL]

Row | SMILES | Water solubility experimental (experimental) [mg/mL] | solubility (water) [mg/mL]
1 | COc1cc2c(c(OC)c1OC)-c1ccc(OC)c(=O)cc1[C@@H](NC(C)=O)CC2 [compound 1, colchicine] | 45 | –
2 | COc1cccc2c1C(=O)c1c(O)c3c(c(O)c1C2=O)C[C@@](O)(C(=O)CO)C[C@@H]3O[C@H]1C[C@H](N)[C@H](O)[C@H](C)O1 [doxorubicin] | – | 50 (≈ 92 mM)
